From patent US20060020110A1, “Synthetic peptides that bind to the hepatitis B virus core and E antigens” (priority 2000, published 2006)

The substances below were run against T1, HBcAg (Hepatitis B virus genotype D subtype ayw, UniProt P03146) (assay: not given). Conditions: HBcAg added at 5 μg/ml.
Text: (§1) One approach to rational drug design involves sequential amino acid deletion of a known binding partner starting from either the amino or carboxy termini. Amino-terminal deletions of the binding partners of SEQ. ID. Nos. 5 and 17 were made and these peptide fragments were joined to a support and analyzed for the ability to bind HBcAg. […] ID. […] The amino-terminal deletions of the peptide of SEQ. ID. […] The amino-terminal deletion products of the peptide of SEQ. ID. […] ID.
To determine whether a candidate binding partner bound to HBcAg and/or HbeAg, a multimeric support-based binding assay was performed. Accordingly, synthetic peptides corresponding to the VH and VL domains of the sequenced mAbs were passively adsorbed to 96 well microplates in serial dilutions starting at 200 μg/ml. The peptide coated plates were then incubated with HBcAg and HBeAg serially diluted in PBS-GT. The amount of HBcAg and HBeAg bound by the peptides was then detected using a mAb directed to an epitope common to HBcAg and HBeAg (See Sällberg et al., J General Virology 74:1335-1340 (1993), herein expressly incorportaed by reference in its entirety) diluted 1:3000 in PBS-GT. The quantity of bound mAb was determined by addition by peroxidase labeled rabbit anti-mouse IgG (P260, Dako A S, Denmark). The plates were developed by incubation with ortho-phenylene-diamine (Sigma) and the absorbance at 492 nm was evaluated.
The converse of an aspect of this experiment was also performed. That is, various dilutions of support-bound binding partners (SEQ. ID. Nos. 5, 16, 17, 28, and 29) were contacted with 10 μg/ml of HBcAg and binding was evaluated. ID.

T1 sequence (P03146 whole entry, the tested form may be a part): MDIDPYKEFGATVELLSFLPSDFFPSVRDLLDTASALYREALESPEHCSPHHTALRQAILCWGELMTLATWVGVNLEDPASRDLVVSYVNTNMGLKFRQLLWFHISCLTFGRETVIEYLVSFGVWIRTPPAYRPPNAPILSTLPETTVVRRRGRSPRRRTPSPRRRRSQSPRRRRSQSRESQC

Row | Substance | OD at 490 nm, HBcAg binding to support-bound amino terminal deletion peptides
1 | PGASVKLSCKASGYIFTS [SEQ. ID. No. 40] | 1.722
2 | SVKLSCKASGYIFTS [SEQ. ID. No. 43] | 3.364
3 | GYIFTS [SEQ. ID. No. 52] | 0.414
4 | YSYMHWY [SEQ. ID. No. 64] | 0.245
5 | QSVSTSSYSYMHWY [SEQ. ID. No. 58] | 0.282
6 | KASGYIFTS [SEQ. ID. No. 49] | 0.237
7 | KPGASVKLSCKASGYIFTS [SEQ. ID. No. 39] | 1.337
8 | SYMHWY [SEQ. ID. No. 65] | 0.218
9 | VKLSCKASGYIFTS [SEQ. ID. No. 44] | 3.703
10 | VSTSSYSYMHWY [SEQ. ID. No. 60] | 0.369
11 | SCKASGYIFTS [SEQ. ID. No. 47] | 0.297
12 | TSSYSYMHWY [SEQ. ID. No. 62] | 0.317
13 | SSYSYMHWY [SEQ. ID. No. 63] | 0.311
14 | SVSTSSYSYMHWY [SEQ. ID. No. 59] | 0.305
15 | STSSYSYMHWY [SEQ. ID. No. 61] | 0.372
16 | CRASQSVSTSSYSYMHWY [SEQ. ID. No. 54] | 1.415
17 | CKASGYIFTS [SEQ. ID. No. 48] | 0.255
18 | ASQSVSTSSYSYMHWY [SEQ. ID. No. 56] | 0.324
19 | GASVKLSCKASGYIFTS [SEQ. ID. No. 41] | 2.863
20 | SCRASQSVSTSSYSYMHWY [SEQ. ID. No. 53] | 1.452
21 | RASQSVSTSSYSYMHWY [SEQ. ID. No. 55] | 0.429
22 | ASGYIFTS [SEQ. ID. No. 50] | 0.407
23 | SGYIFTS [SEQ. ID. No. 51] | 0.389
24 | LSCKASGYIFTS [SEQ. ID. No. 46] | 0.565
25 | KLSCKASGYIFTS [SEQ. ID. No. 45] | 3.694
26 | ASVKLSCKASGYIFTS [SEQ. ID. No. 42] | 3.219
27 | SQSVSTSSYSYMHWY [SEQ. ID. No. 57] | 0.310

Same assay, conditions: support-bound peptide; HBcAg 0.2 μg/well

Row | Substance | OD at 405 nm to indicated antigen: HBcAg 0.2 μg/well
28 | ELTRLTSEDSAVYFCARGDY (Synthetically prepared amino acid sequence) [Peptide 9] | 0.195
29 | YDIDWVRQTPEQGLEWIGWI (Synthetically prepared amino acid sequence) [Peptide 4] | 0.202
30 | LVTVSAAKTTPPSVYPLVPV (Synthetically prepared amino acid sequence) [Peptide 35] | 0.198
31 | QLNSLTSEDSAVYYCARGKG (Synthetically prepared amino acid sequence) [Peptide 32] | 0.121
32 | CKASGYIFTSYDIDWVRQTP (Synthetically prepared amino acid sequence) [Peptide 3] | 0.187

Same assay, conditions: support-bound peptide; HBcAg 2 μg/well

Row | Substance | OD at 405 nm to indicated antigen: HBcAg 2 μg/well
33 | ELTRLTSEDSAVYFCARGDY (Synthetically prepared amino acid sequence) [Peptide 9] | 0.574
34 | YDIDWVRQTPEQGLEWIGWI (Synthetically prepared amino acid sequence) [Peptide 4] | 0.551
35 | LVTVSAAKTTPPSVYPLVPV (Synthetically prepared amino acid sequence) [Peptide 35] | 0.59
36 | QLNSLTSEDSAVYYCARGKG (Synthetically prepared amino acid sequence) [Peptide 32] | 0.528
37 | CKASGYIFTSYDIDWVRQTP (Synthetically prepared amino acid sequence) [Peptide 3] | 0.525

The substances below were run against T1, HBcAg (assay: not given). Conditions: peptide added prior to addition of mAb; uninhibited control mean OD 0.871.
Text: as §1
Variations of the characterization assays described above include competitive binding assays. […] Initial experiments were conducted by contacting binding partner to HBcAg prior to introducing the antibody. […] ID. […] ID. […] ID. […] ID. […] ID. […] ID.

Row | Substance | OD at 490 nm, mAb 4-2 binding to HBcAg
38 | PGASVKLSCKASGYIFTS [SEQ. ID. No. 40] | 0.182
39 | SVKLSCKASGYIFTS [SEQ. ID. No. 43] | 0.175
40 | GYIFTS [SEQ. ID. No. 52] | 0.903
41 | KASGYIFTS [SEQ. ID. No. 49] | 0.866
42 | KPGASVKLSCKASGYIFTS [SEQ. ID. No. 39] | 0.202
43 | VKLSCKASGYIFTS [SEQ. ID. No. 44] | 0.152
44 | SCKASGYIFTS [SEQ. ID. No. 47] | 0.784
45 | CKASGYIFTS [SEQ. ID. No. 48] | 0.851
46 | GASVKLSCKASGYIFTS [SEQ. ID. No. 41] | 0.205
47 | ASGYIFTS [SEQ. ID. No. 50] | 0.920
48 | SGYIFTS [SEQ. ID. No. 51] | 0.887
49 | LSCKASGYIFTS [SEQ. ID. No. 46] | 0.777
50 | KLSCKASGYIFTS [SEQ. ID. No. 45] | 0.808
51 | ASVKLSCKASGYIFTS [SEQ. ID. No. 42] | 0.207

What follows are substances tested against T1, HBcAg (assay: not given). Conditions: 5 μg HBcAg peptide + 5 μg SEQ. ID. No. 74; triplicate.
Description: In this experiment, microplates were coated overnight with 1 μg/ml HBcAg and, subsequently, a 100 μl mixture containing 5 μg of the peptide […] […] The HBcAg peptides were approximately 20 amino acids in length and corresponded to regions of HBcAg spanning amino acid residues 11-183. The experiment was performed in triplicate.

Row | Substance | Effect on binding of peptide SEQ. ID. No. 74 to HBcAg (in words)
52 | TNMGLKFRQLLWFHISCLTF [SEQ. ID. No. 104] | consistently reduced the binding
53 | SRDLVVSYVNTNMGLKFRQL [SEQ. ID. No. 103] | consistently reduced the binding

Same assay, conditions: HBcAg coated 1 μg/ml; 5 μg SEQ. ID. No. 74 + 5 μg HBcAg peptide; no inhibitor OD 1.454

Row | Substance | OD at 490 nm, bound peptide SEQ. ID. No. 74
54 | GRETVIEYLVSFGVWIRTPP [SEQ. ID. No. 106] | 0.832
55 | LDTASALYREALESPEHCSP [SEQ. ID. No. 98] | 1.589
56 | STLPETTVVRRRGRSPRRRT [SEQ. ID. No. 109] | 0.811
57 | TNMGLKFRQLLWFHISCLTF [SEQ. ID. No. 104] | 0.058
58 | AYRPPNAPILSTLPETTVVR [SEQ. ID. No. 108] | 1.564
59 | SDFFPSVRDLLDTASALYRE [SEQ. ID. No. 97] | 1.576
60 | CWGELMTLATWVGVNLEDPA [SEQ. ID. No. 101] | 1.395
61 | ALESPEHCSPHHTALRQAIL [SEQ. ID. No. 99] | 1.372
62 | ATVELLSFLPSDFFPSVRDL [SEQ. ID. No. 96] | 1.387
63 | WVGVNLEDPASRDLVVSYVN [SEQ. ID. No. 102] | 1.411
64 | PSPRRRRSQSPRRRRSQSRESQC [SEQ. ID. No. 111] | 0.678
65 | LWFHISCLTFGRETVIEYLV [SEQ. ID. No. 105] | 1.129
66 | RRGRSPRRRTPSPRRRRSQS [SEQ. ID. No. 110] | 0.732
67 | SRDLVVSYVNTNMGLKFRQL [SEQ. ID. No. 103] | 0.386

Same assay, conditions: deviation of the OD from the mean OD of all peptides

Row | Substance | Std. Deviation from the mean
68 | GRETVIEYLVSFGVWIRTPP [SEQ. ID. No. 106] | −0.423
69 | LDTASALYREALESPEHCSP [SEQ. ID. No. 98] | 1.103
70 | STLPETTVVRRRGRSPRRRT [SEQ. ID. No. 109] | −0.466
71 | TNMGLKFRQLLWFHISCLTF [SEQ. ID. No. 104] | −1.984
72 | AYRPPNAPILSTLPETTVVR [SEQ. ID. No. 108] | 1.052
73 | SDFFPSVRDLLDTASALYRE [SEQ. ID. No. 97] | 1.077
74 | CWGELMTLATWVGVNLEDPA [SEQ. ID. No. 101] | 0.712
75 | ALESPEHCSPHHTALRQAIL [SEQ. ID. No. 99] | 0.665
76 | ATVELLSFLPSDFFPSVRDL [SEQ. ID. No. 96] | 0.696
77 | WVGVNLEDPASRDLVVSYVN [SEQ. ID. No. 102] | 0.744
78 | PSPRRRRSQSPRRRRSQSRESQC [SEQ. ID. No. 111] | −0.734
79 | LWFHISCLTFGRETVIEYLV [SEQ. ID. No. 105] | .175
80 | RRGRSPRRRTPSPRRRRSQS [SEQ. ID. No. 110] | −0.625
81 | SRDLVVSYVNTNMGLKFRQL [SEQ. ID. No. 103] | −1.323

These substances were tested against T2, HBeAg (Hepatitis B virus genotype D subtype ayw, UniProt P0C573) (assay: Redirection of HSV gG2 mAb to HBeAg on solid phase by fusion peptide in solution). Conditions: fusion peptide in solution 20 μg/well.
T2 construct: containing nine residues of pre-core and the 150 first residues of HBcAg; made in house
Assay type: binding
Text: (§2) ID. […] The specificity exchangers provided in SEQ. ID. […] Similarly, the specificity exchangers provided in SEQ. ID.

T2 sequence (P0C573 21-179): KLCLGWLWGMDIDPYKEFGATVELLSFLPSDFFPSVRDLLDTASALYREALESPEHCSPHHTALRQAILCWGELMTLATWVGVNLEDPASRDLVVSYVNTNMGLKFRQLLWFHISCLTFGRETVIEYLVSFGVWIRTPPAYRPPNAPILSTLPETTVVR

Row | Substance | gG2 mAb binding to indicated antigen on solid phase: HBeAg
82 | VKLSCKASGYIFTSHRGGPEE [SEQ. ID. No. 75] | 0.032
83 | VKLSCKASGYIFTSEHRGGPE [SEQ. ID. No. 73] | 0.029

The substances below were run on mAb specific for HSV gG2 (assay: gG2 mAb binding to fusion peptide on solid phase). Conditions: no addition of fusion peptide in solution.
Text: as §2

Row | Substance | gG2 mAb binding to indicated antigen on solid phase: fusion peptide
84 | VKLSCKASGYIFTSHRGGPEE [SEQ. ID. No. 75] | 0.213
85 | VKLSCKASGYIFTSEHRGGPE [SEQ. ID. No. 73] | 0.060

Same assay, conditions: specificity exchanger coated onto microtiterplates

Row | Substance | Binding of mAb specific for HSV gG2 to coated specificity exchanger (in words)
86 | VKLSCKASGYIFTSHRGGPEE [SEQ. ID. No. 75] | appreciably bound the mAb

What follows are substances tested against T1, HBcAg (assay: not given). Conditions: fusion peptide in solution 20 μg/well.
Description: To evaluate the efficacy of the specificity exchangers described above, several binding assays using a mAb specific for HSV gG2 were conducted. In one assay, the various specificity exchangers were coated onto microtiterplates and were bound with the mAb specific for HSV gG2. […] ID. […] In another assay, HBcAg was coated onto microtiter plates, specificity exchanger was added (20 μg/well), and the binding of the mAb specific for HSV gG2 was determined. […] ID. […] In another binding assay, HBeAg was coated onto microtiter plates, specificity exchanger was added (20 μg/well), and the binding of the mAb specific for HSV gG2 was determined. […] ID. […] The characterization assays used to evaluate binding partners can also be used and/or modified for the analysis of the specificity exchangers.

Row | Substance | gG2 mAb binding to indicated antigen on solid phase: HBcAg
87 | VKLSCKASGYIFTSHRGGPEE [SEQ. ID. No. 75] | 0.037
88 | VKLSCKASGYIFTSEHRGGPE [SEQ. ID. No. 73] | 0.038
